Measurements published in US4971993A, “Dipeptide derivatives and antihypertensive drugs containing them” (Ajinomoto Co., Inc., priority 1985, dated 1990).
Peptide text beside a SMILES is read from it. * marks the point of attachment. Mts = Cc1cc(C)c(S(=O)(=O)*)c(C)c1; Tos = Cc1ccc(S(=O)(=O)*)cc1

System: spontaneously hypertensive rats
Assay: Antihypertensive activity: systolic blood pressure measured indirectly on conscious SHR after a single oral dose
Format: in vivo
Details: male; for Hours after Administration (time of lowest systolic blood pressure) / Systolic Blood Pressure, Lowest value after Administration: 0.05 mmole/kg aqueous solution, once force-fed into the stomach; for ΔBlood Pressure (systolic): 0.05 mmole/kg once orally, lowest value minus value before administration
Description: The antihypertensive activity of the peptide derivatives as prepared above was determined.
As subject animals there were used 5 SHR which had been trained enough and been confirmed to be hypertensive spontaneously hypertensive rats (male, body weight of 400-440 g),per sample
As an instrument for measuring the blood pressure there was used Programmed Electro-Sphygmomanometer PE-300 (Narco Co., U.S.A.), and the blood pressure was indirectly measured on conscious rats.
An aqueous solution of a sample (0.05 mmole/kg) was once force-fed into the stomach by means of a peroal probe. As a control, deionized water was fed to the same animals as above.

2-benzenesulfonylamino isobutyryl-L-proline sodium salt [Example 21]
Hours after Administration (time of lowest systolic blood pressure): 7 h
Systolic Blood Pressure, Lowest value after Administration: 193 mmHg
ΔBlood Pressure (systolic): -17 mmHg

C[C@H](NS(=O)(=O)c1ccccc1)C(=O)N1CCC[C@H]1C(=O)O [Example 1, N-benzenesulfonyl-L-alanyl-L-proline]
Hours after Administration (time of lowest systolic blood pressure): 8 h
Systolic Blood Pressure, Lowest value after Administration: 185 mmHg
ΔBlood Pressure (systolic): -28 mmHg

Cc1cc(C)c(S(=O)(=O)N[C@@H](C)C(=O)N2CCC[C@H]2C(=O)O)c(C)c1 [Example 2, N-mesitylenesulfonyl-L-alanyl-L-proline] (Mts-Ala-Pro-OH)
Hours after Administration (time of lowest systolic blood pressure): 7 h
Systolic Blood Pressure, Lowest value after Administration: 191 mmHg
ΔBlood Pressure (systolic): -11 mmHg

Cc1ccc(S(=O)(=O)N[C@@H](C)C(=O)N2CCC[C@H]2C(=O)O)cc1 [Example 3, N-p-toluenesulfonyl-L-alanyl-L-proline] (Tos-Ala-Pro-OH)
Hours after Administration (time of lowest systolic blood pressure): 7 h
Systolic Blood Pressure, Lowest value after Administration: 194 mmHg
ΔBlood Pressure (systolic): -12 mmHg

C[C@H](NS(=O)(=O)c1cccc2ccccc12)C(=O)N1CCC[C@H]1C(=O)O [Example 4, N-α-naphthalenesulfonyl-L-alanyl-L-proline]
Hours after Administration (time of lowest systolic blood pressure): 7 h
Systolic Blood Pressure, Lowest value after Administration: 185 mmHg
ΔBlood Pressure (systolic): -13 mmHg

C[C@H](NS(=O)(=O)c1ccccc1[N+](=O)[O-])C(=O)N1CCC[C@H]1C(=O)O [Example 5, N-α-nitrobenzenesulfonyl-L-alanyl-L-proline]
Hours after Administration (time of lowest systolic blood pressure): 7 h
Systolic Blood Pressure, Lowest value after Administration: 193 mmHg
ΔBlood Pressure (systolic): -18 mmHg

C[C@H](NS(=O)(=O)c1ccccc1N)C(=O)N1CCC[C@H]1C(=O)O [Example 6, N-o-aminobenzenesulfonyl-L-alanyl-L-proline]
Hours after Administration (time of lowest systolic blood pressure): 7 h
Systolic Blood Pressure, Lowest value after Administration: 197 mmHg
ΔBlood Pressure (systolic): -35 mmHg

C[C@H](NS(=O)(=O)Cc1ccccc1)C(=O)N1CCC[C@H]1C(=O)O [Example 7, N-benzylsulfonyl-L-alanyl-L-proline]
Hours after Administration (time of lowest systolic blood pressure): 7 h
Systolic Blood Pressure, Lowest value after Administration: 194 mmHg
ΔBlood Pressure (systolic): -21 mmHg

C[C@H](NS(=O)(=O)c1ccccc1C(=O)O)C(=O)N1CCC[C@H]1C(=O)O [Example 8, N-o-carboxybenzenesulfonyl-L-alanyl-L-proline]
Hours after Administration (time of lowest systolic blood pressure): 7 h
Systolic Blood Pressure, Lowest value after Administration: 194 mmHg
ΔBlood Pressure (systolic): -9 mmHg

O=C(O)[C@@H]1CCCN1C(=O)CNS(=O)(=O)c1ccccc1 [Example 10, N-benzenesulfonylglycyl-L-proline]
Hours after Administration (time of lowest systolic blood pressure): 7 h
Systolic Blood Pressure, Lowest value after Administration: 201 mmHg
ΔBlood Pressure (systolic): -9 mmHg

CC(C)[C@H](NS(=O)(=O)c1ccccc1)C(=O)N1CCC[C@H]1C(=O)O [Example 11, N-benzenesulfonyl-L-valyl-L-proline]
Hours after Administration (time of lowest systolic blood pressure): 7 h
Systolic Blood Pressure, Lowest value after Administration: 203 mmHg
ΔBlood Pressure (systolic): -11 mmHg

CC[C@H](C)[C@H](NS(=O)(=O)c1ccccc1)C(=O)N1CCC[C@H]1C(=O)O [Example 12, N-benzenesulfonyl-L-isoleucyl-L-proline]
Hours after Administration (time of lowest systolic blood pressure): 7 h
Systolic Blood Pressure, Lowest value after Administration: 191 mmHg
ΔBlood Pressure (systolic): -21 mmHg

O=C(O)[C@@H]1CCCN1C(=O)[C@@H](NS(=O)(=O)c1ccccc1)c1ccccc1 [Example 13, N-benzenesulfonyl-L-phenylglycyl-L-proline]
Hours after Administration (time of lowest systolic blood pressure): 7 h
Systolic Blood Pressure, Lowest value after Administration: 204 mmHg
ΔBlood Pressure (systolic): -8 mmHg

O=C(O)[C@@H]1CCCN1C(=O)[C@H](Cc1ccccc1)NS(=O)(=O)c1ccccc1 [Example 14, N-benzenesulfonyl-L-phenylalanyl-L-proline]
Hours after Administration (time of lowest systolic blood pressure): 7 h
Systolic Blood Pressure, Lowest value after Administration: 201 mmHg
ΔBlood Pressure (systolic): -18 mmHg

CSCC[C@H](NS(=O)(=O)c1ccccc1)C(=O)N1CCC[C@H]1C(=O)O [Example 15, N-benzenesulfonyl-L-methionyl-L-proline]
Hours after Administration (time of lowest systolic blood pressure): 4 h
Systolic Blood Pressure, Lowest value after Administration: 206 mmHg
ΔBlood Pressure (systolic): -13 mmHg

O=C(O)[C@@H]1CCCN1C(=O)[C@@H]1CCCN1S(=O)(=O)c1ccccc1 [Example 16, N-benzenesulfonyl-L-prolyl-L-proline]
Hours after Administration (time of lowest systolic blood pressure): 7 h
Systolic Blood Pressure, Lowest value after Administration: 195 mmHg
ΔBlood Pressure (systolic): -21 mmHg

O=C(O)[C@@H]1CCCN1C(=O)[C@H](CO)NS(=O)(=O)c1ccccc1 [Example 17, N-benzenesulfonyl-L-seryl-L-proline]
Hours after Administration (time of lowest systolic blood pressure): 7 h
Systolic Blood Pressure, Lowest value after Administration: 194 mmHg
ΔBlood Pressure (systolic): -22 mmHg

O=C(O)CC[C@H](NS(=O)(=O)c1ccccc1)C(=O)N1CCC[C@H]1C(=O)O [Example 18, N-benzenesulfonyl-L-glutamyl-L-proline]
Hours after Administration (time of lowest systolic blood pressure): 7 h
Systolic Blood Pressure, Lowest value after Administration: 189 mmHg
ΔBlood Pressure (systolic): -14 mmHg

NCCCC[C@H](NS(=O)(=O)c1ccccc1)C(=O)N1CCC[C@H]1C(=O)O [Example 19, N^α -benzenesulfonyl-L-lysyl-L-proline]
Hours after Administration (time of lowest systolic blood pressure): 7 h
Systolic Blood Pressure, Lowest value after Administration: 191 mmHg
ΔBlood Pressure (systolic): -28 mmHg

N-ethanesulfonyl-L-alanyl-L-proline potassium salt [Example 9]
Hours after Administration (time of lowest systolic blood pressure): 7 h
Systolic Blood Pressure, Lowest value after Administration: 213 mmHg
ΔBlood Pressure (systolic): -5 mmHg
